Assay results reported in paper PMC5428521, “Identification of a Novel, Small Molecule Partial Agonist for the Cyclic AMP Sensor, EPAC1” (Scientific Reports, 2017).
Where “and” joins values, the source holds several entries; their conditions need not be identical. Equal entries are not always repeated.

Tests used:
[1] = molecular target: T1, EPAC2 (amino acids 280–993) (Mus musculus, UniProt Q9EQZ6); test: In vitro GEF activity assay (MANT-GDP dissociation from Rap1), EPAC2; assay type: biochemical; conditions: for IC50: IC50, GEF Inhibition (with cAMP), 50 μM cAMP; for GEF Activation (no cAMP), AC50 / induced EPAC2 activity: absence of cAMP, N/A = inability to promote GEF activity of EPAC2
T1 construct: EPAC2 (amino acids 280–993); made in house; host or cells: bacteria
T1 sequence (Q9EQZ6 280-993 isoform Q9EQZ6-3): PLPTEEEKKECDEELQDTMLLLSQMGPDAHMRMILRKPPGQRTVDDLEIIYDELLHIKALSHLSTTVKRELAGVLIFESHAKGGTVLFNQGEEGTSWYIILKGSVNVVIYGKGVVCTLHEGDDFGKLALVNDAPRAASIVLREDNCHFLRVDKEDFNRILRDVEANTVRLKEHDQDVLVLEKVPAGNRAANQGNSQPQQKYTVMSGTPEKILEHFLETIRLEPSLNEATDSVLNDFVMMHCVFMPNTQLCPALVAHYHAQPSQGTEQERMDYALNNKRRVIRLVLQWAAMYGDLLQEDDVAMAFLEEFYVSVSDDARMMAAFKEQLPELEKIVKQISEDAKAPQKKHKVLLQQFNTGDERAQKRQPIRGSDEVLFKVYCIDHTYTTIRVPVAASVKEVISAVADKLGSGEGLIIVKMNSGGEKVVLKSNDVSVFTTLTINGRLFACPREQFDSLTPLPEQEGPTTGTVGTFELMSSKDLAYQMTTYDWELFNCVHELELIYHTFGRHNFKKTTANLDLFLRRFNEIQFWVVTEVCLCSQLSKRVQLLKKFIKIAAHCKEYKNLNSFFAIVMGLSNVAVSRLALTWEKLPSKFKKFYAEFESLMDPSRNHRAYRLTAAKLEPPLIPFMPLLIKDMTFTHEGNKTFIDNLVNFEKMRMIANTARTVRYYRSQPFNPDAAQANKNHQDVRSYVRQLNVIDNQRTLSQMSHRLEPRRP
Experimental: EPAC1 and EPAC2 in vitro GEF activities were calculated as previously described. Briefly, recombinant EPAC1 (amino acids 149–881) or EPAC2 (amino acids 280–993) were incubated at 100 nM with recombinant Rap1 (200 nM) preloaded with the fluorescent GDP analogue 2′/3′-O-(N-Methylanthraniloyl)guanosine 5-diphosphate (MANT-GDP) in the presence of 20 μM GDP and then the fluorescence intensity was measured at 360/450 nm (ex/em) over time. […] AC50 or IC50 values were determined from the plots of kobs against the concentration of the agonist and antagonist, respectively Table 1.

protein kinase A (PKA) = test: PKA kinase activity assay in HEK293T cell extracts; assay type: biochemical; conditions: 1 mM cAMP, compound 0.1 to 100 µM
Experimental: PKA activity was measured directly in cell extracts using the PKA Kinase Activity Assay Kit (Abcam) following the manufacturer's instructions. […] Cells were washed in ice-cold PBS containing phosphatase inhibitors, scrapped into Eppendorf tubes and centrifuged at 200 × g at 4 °C for 5 minutes. Supernatants were discarded and the cell pellet was re-suspended in Complete Lysis Buffer containing 1 mM DTT, 1 mM PMSF and protease inhibitor cocktail (Roche) and then incubated for 10 minutes on ice (on the rocking platform) followed by vortex and centrifugation at […] at 4 °C for 20 minutes. Cell extracts were then transferred to fresh Eppendorf tubes, assayed for protein content and then stored at -80 °C. […] Next, 10 μl of ATP was added to each well and incubated at 30 °C for 90 min, with gentle shaking. The reaction was stopped by aspirating the contents of each well and then 40 μl of PKA phosphospecific substrate antibody was added to each well and then the plate was covered with plastic wrap and incubated at room temperature for 60 min (with gentle shaking every 20 min). […] Fluorescence was then measured at 480/530 nm. […] PKA activity was then measured in the cell extracts using an ELISA assay according to the manufactures instructions. […]

Row | Compound | IC50 [1] | GEF Activation (no cAMP), AC50 / induced EPAC2 activity [1] | Kd ([1]; read-out: affinity for EPAC2 280–993, approximated) [µM] | effect on PKA activity induced by cAMP (protein kinase A (PKA))
1 | Cc1ccc(S(=O)(=O)NC(=O)COc2ccc3ccccc3c2)c(C)c1 [I942, N-(2,4-dimethylbenzenesulfonyl)-2-(naphthalen-2-yloxy)acetamide] | 110 µM and ~110 µM | very weak | ~5 | did not significantly affect PKA activity
2 | O=C(COc1ccc2ccccc2c1)NS(=O)(=O)c1ccccc1 [I178, N-(benzenesulfonyl)-2-(naphthalen-2-yloxy)acetamide] | 250 µM and ~250 µM | very weak |  | 
